Experimental data reported in patent US20240335431A1, “1-H-PYRROLO[2,3-c]PYRIDINE COMPOUNDS” (Acerta Pharma B.V., priority 2023, published 2024).
Read-outs that look alike come from different tables or passages of the source.

Columns and labels:
[1] = Human liver microsomes (HLMs) intrinsic clearance assay; format: in vitro ADME; conditions: human, microsomes; for HLM CLint: 1 µM, pH 7.4
hERG = hERG (Homo sapiens (Human), UniProt Q12809); experiment: hERG assay 1 (standard), SyncroPatch 384PE; format: cell-based; conditions: CHO cells, room temperature, up to 40 uM
Chain of hERG (Q12809 whole entry): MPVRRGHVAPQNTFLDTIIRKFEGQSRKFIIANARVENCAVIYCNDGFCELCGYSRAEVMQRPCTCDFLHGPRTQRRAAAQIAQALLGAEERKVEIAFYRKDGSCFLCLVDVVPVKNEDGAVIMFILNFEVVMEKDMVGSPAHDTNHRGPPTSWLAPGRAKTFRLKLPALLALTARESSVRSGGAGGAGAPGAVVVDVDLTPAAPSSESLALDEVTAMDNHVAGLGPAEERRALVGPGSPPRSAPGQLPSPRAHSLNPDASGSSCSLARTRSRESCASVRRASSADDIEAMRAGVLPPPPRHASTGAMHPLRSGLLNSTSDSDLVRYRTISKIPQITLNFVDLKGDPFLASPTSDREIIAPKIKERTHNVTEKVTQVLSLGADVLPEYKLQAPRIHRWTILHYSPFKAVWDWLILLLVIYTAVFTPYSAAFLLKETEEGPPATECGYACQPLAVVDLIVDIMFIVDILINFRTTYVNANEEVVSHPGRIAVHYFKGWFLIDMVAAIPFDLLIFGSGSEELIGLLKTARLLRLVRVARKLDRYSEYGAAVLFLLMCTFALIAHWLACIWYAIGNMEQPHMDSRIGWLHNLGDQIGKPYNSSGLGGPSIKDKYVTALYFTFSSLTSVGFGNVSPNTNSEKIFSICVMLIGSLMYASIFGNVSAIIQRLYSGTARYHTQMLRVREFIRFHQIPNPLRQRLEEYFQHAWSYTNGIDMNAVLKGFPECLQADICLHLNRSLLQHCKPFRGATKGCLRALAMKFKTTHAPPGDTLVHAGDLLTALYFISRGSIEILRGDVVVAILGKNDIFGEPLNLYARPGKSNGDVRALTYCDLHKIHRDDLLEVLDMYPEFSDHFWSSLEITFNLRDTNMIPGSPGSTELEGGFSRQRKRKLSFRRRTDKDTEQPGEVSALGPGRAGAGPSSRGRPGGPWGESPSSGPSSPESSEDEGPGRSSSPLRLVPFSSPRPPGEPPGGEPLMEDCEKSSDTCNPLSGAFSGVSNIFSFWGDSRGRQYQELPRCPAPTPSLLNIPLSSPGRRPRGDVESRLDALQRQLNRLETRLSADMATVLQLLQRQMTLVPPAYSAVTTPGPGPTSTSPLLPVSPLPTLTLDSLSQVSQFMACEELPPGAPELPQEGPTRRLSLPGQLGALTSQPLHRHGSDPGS
How it was run: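 Automated patch clamp on hERG-expressing CHO-K1 cells at room temperature, +60/−40 mV protocol every 15 s. Six-point cumulative concentrations 139 nM to 40 uM (0.33% DMSO final); IC50 from one-site fit of % inhibition. Wells required ≥30 MegaOhm seal, current >0.2 nA, Z prime >0.4.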

MV4;11 cells = experiment: Proliferation assay, MV4;11 (CellTiter-Glo, 7 days); format: cell-based, human; conditions: read-out: MV-4-11 IC50
How it was run: (§1)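 Cells seeded at 125 (MOLM-13), 300 (MV4;11), 75 (OCI-AML3) or 200 (HEL) per well were exposed to 3.16-fold compound dilutions (0.1% DMSO) for 7 days at 37° C. Viability by CellTiter-Glo luminescence, normalized to DMSO (100%) and day-0 plate (0%); IC50 from one-site dose-response fit.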

MOLM-13 cells = experiment: Proliferation assay, MOLM-13 (CellTiter-Glo, 7 days); format: cell-based, human
How it was run: as §1

[2] = pH 7.4, 1 mg/mL HLM, NADPH, read-out: HLM CLint

Row | SMILES | microsomal CLint at 1 µM ([1]; pH 7.4, HLM CLint) | IC50 (hERG) | IC50 (MV4;11 cells; Homo sapiens, MV4-11, 168 h) | IC50 (MOLM-13 cells; Homo sapiens, MOLM-13, 168 h) | microsomal CLint at 1 µM [1, 2] | IC50 (MV4;11 cells) | HLM CLint [1] | IC50 (MOLM-13 cells)
1 | CC(C)N(C(=O)c1cc(F)ccc1-n1cc(C(=O)C2CCN(C(=O)[C@H]3NC[C@@H]4C[C@@H]43)CC2)c2ccncc21)C(C)C [Example 19, 2-(3-(1-((1S,2S,5R)-3-Azabicyclo[3.1.0]hexane-2-carbonyl)piperidine-4-carbonyl)-1H-pyrrolo[2,3-c]pyridin-1-yl)-5-fluoro-N,N-diisopropylbenzamide] | 56 µL/min/mg | > 40000 nM | 25 nM | 34 nM |  |  |  | 
2 | CC(C)N(C(=O)c1cc(F)ccc1-n1cc(C(=O)C2CCN(C(=O)[C@H]3NC[C@@H]4CCC[C@@H]43)CC2)c2ccncc21)C(C)C [Example 21, 5-Fluoro-N,N-diisopropyl-2-(3-(1-((1S,3αR,6αS)-octahydrocyclopenta[c]pyrrole-1-carbonyl)piperidine-4-carbonyl)-1H-pyrrolo[2,3-c]pyridin-1-yl)benzamide] | 197 µL/min/mg | > 40000 nM | 27 nM | 34 nM |  |  |  | 
3 | CCN(C(=O)c1cc(F)ccc1-n1c(C)c(C(=O)[C@@H]2CCN(C(=O)[C@@H]3CCC4(CC4)N3)[C@@H](C)C2)c2ccncc21)C(C)C (single isomer, unassigned) [Example 52-1, N-Ethyl-5-fluoro-N-isopropyl-2-(2-methyl-3-((2R*,4S*)-2-methyl-1-((S)-4-azaspiro[2.4]heptane-5-carbonyl)piperidine-4-carbonyl)-1H-pyrrolo[2,3-c]pyridin-1-yl)benzamide] |  |  |  |  | 150 µL/min/mg | 22 nM |  | 
4 | C[C@@H]1COC[C@@H](C)N1C(=O)c1cc(F)ccc1-n1cc(C(=O)C2CCN(C(=O)[C@H]3N[C@@H]4CC[C@H]3C4)CC2)c2ccncc21 [Example 34, (1-((1R,3S,4S)-2-Azabicyclo[2.2.1]heptane-3-carbonyl)piperidin-4-yl)(1-(2-((3R,5R)-3,5-dimethylmorpholine-4-carbonyl)-4-fluorophenyl)-1H-pyrrolo[2,3-c]pyridin-3-yl)methanone] | 11 µL/min/mg | > 40000 nM | 39 nM | 62 nM |  |  |  | 
5 | Cc1c(C(=O)C2CCN(C(=O)[C@H]3NC[C@@H]4C[C@@H]43)CC2)c2ccncc2n1-c1ccc(F)cc1C(=O)N(CC(F)(F)F)C(C)C (single isomer, unassigned) [Example 51-2] |  | > 40000 nM | 29 nM |  |  |  | 52 µL/min/mg | 31 nM
6 | Cc1c(C(=O)[C@@H]2CCN(C(=O)[C@@H]3CC[C@H](C)N3)[C@@H](C)C2)c2ccncc2n1-c1ccc(F)cc1C(=O)N(C(C)C)C(C)C (stereo in doubt) [Example 62, 5-Fluoro-N,N-diisopropyl-2-(2-methyl-3-((2S,4RS)-2-methyl-1-((2S,5S)-5-methylpyrrolidine-2-carbonyl)piperidine-4-carbonyl)-1H-pyrrolo[2,3-c]pyridin-1-yl)benzamide] | 12 µL/min/mg | > 40000 nM |  | 52 nM |  |  |  | 
7 | Cc1c(C(=O)[C@@H]2CCN(C(=O)[C@@H]3CC[C@@H](C)N3)[C@@H](C)C2)c2ccncc2n1-c1ccc(F)cc1C(=O)N(C(C)C)C(C)C (stereo in doubt) [Example 64, 5-Fluoro-N,N-diisopropyl-2-(2-methyl-3-((2S,4RS)-2-methyl-1-((2S,5R)-5-methylpyrrolidine-2-carbonyl)piperidine-4-carbonyl)-1H-pyrrolo[2,3-c]pyridin-1-yl)benzamide] | 88 µL/min/mg | 32700 nM |  | 53 nM |  |  |  | 
8 | CC(C)N(C(=O)c1cc(F)ccc1-n1cc(C(=O)C2CN(C(=O)[C@H]3NC4CCC3CC4)C2)c2ccncc21)C(C)C [Example 6, (S)-2-(3-(1-(2-Azabicyclo[2.2.2]octane-3-carbonyl)azetidine-3-carbonyl)-1H-pyrrolo[2,3-c]pyridin-1-yl)-5-fluoro-N,N-diisopropylbenzamide] | 40 µL/min/mg |  | 46 nM | 73 nM |  |  |  | 
9 | CC(C)N(C(=O)c1cc(F)ccc1-n1cc(C(=O)C2CCN(C(=O)[C@H]3N[C@@H]4CC[C@H]3C4)CC2)c2ccncc21)C(C)C [Example 16, 2-(3-(1-((1R,3S,4S)-2-Azabicyclo[2.2.1]heptane-3-carbonyl)piperidine-4-carbonyl)-1H-pyrrolo[2,3-c]pyridin-1-yl)-5-fluoro-N,N-diisopropylbenzamide] | 27 µL/min/mg | > 40000 nM | 29 nM | 35 nM |  |  |  | 
10 | CC(C)N(C(=O)c1cc(F)ccc1-n1cc(C(=O)C2CCN(C(=O)[C@@H]3CCC(C)(C)N3)CC2)c2ccncc21)C(C)C [Example 27, (S)-2-(3-(1-(5,5-Dimethylpyrrolidine-2-carbonyl)piperidine-4-carbonyl)-1H-pyrrolo[2,3-c]pyridin-1-yl)-5-fluoro-N,N-diisopropylbenzamide] | 46 µL/min/mg | > 40000 nM | 35 nM | 38 nM |  |  |  | 
11 | CC(C)N(C(=O)c1cc(F)ccc1-n1cc(C(=O)C2CCN(C(=O)[C@@H]3CCC4(CC4)N3)CC2)c2ccncc21)C(C)C [Example 24, (S)-2-(3-(1-(4-Azaspiro[2.4]heptane-5-carbonyl)piperidine-4-carbonyl)-1H-pyrrolo[2,3-c]pyridin-1-yl)-5-fluoro-N,N-diisopropylbenzamide] |  | 38300 nM | 20 nM | 32 nM | 145 µL/min/mg |  |  | 
12 | O=C(c1cn(-c2ccc(F)cc2-c2cncnc2C2CC2)c2cnccc12)C1CCN(C(=O)[C@H]2N[C@@H]3CC[C@H]2C3)CC1 [Example 40, (1-((1R,3S,4S)-2-Azabicyclo[2.2.1]heptane-3-carbonyl)piperidin-4-yl)(1-(2-(4-cyclopropylpyrimidin-5-yl)-4-fluorophenyl)-1H-pyrrolo[2,3-c]pyridin-3-yl)methanone] | 18 µL/min/mg | > 40000 nM | 37 nM | 61 nM |  |  |  | 
13 | CC(C)c1ncsc1-c1cc(F)ccc1-n1cc(C(=O)C2CN(C(=O)[C@H]3N[C@@H]4CC[C@H]3C4)C2)c2ccncc21.O=CO [Example 12, (1-((1R,3S,4S)-2-Azabicyclo[2.2.1]heptane-3-carbonyl)azetidin-3-yl)(1-(4-fluoro-2-(4-isopropylthiazol-5-yl)phenyl)-1H-pyrrolo[2,3-c]pyridin-3-yl)methanone 1·formic acid] | 216 µL/min/mg | > 40000 nM |  | 102 nM |  |  |  | 
14 | CCN(C(=O)c1cc(F)ccc1-n1c(C)c(C(=O)[C@@H]2CCN(C(=O)[C@@H]3CC[C@@H](C)N3)[C@@H](C)C2)c2ccncc21)C(C)C (stereo in doubt) [Example 65, N-Ethyl-5-fluoro-N-isopropyl-2-(2-methyl-3-((2S,4RS)-2-methyl-1-((2S,5R)-5-methylpyrrolidine-2-carbonyl)piperidine-4-carbonyl)-1H-pyrrolo[2,3-c]pyridin-1-yl)benzamide] | 55 µL/min/mg | > 40000 nM |  | 56 nM |  |  |  | 
15 | CCN(C(=O)c1cc(F)ccc1-n1cc(C(=O)C2CN(C(=O)[C@H]3NC4CCC3CC4)C2)c2ccncc21)C(C)C [Example 9, (S)-2-(3-(1-(2-Azabicyclo[2.2.2]octane-3-carbonyl)azetidine-3-carbonyl)-1H-pyrrolo[2,3-c]pyridin-1-yl)-N-ethyl-5-fluoro-N-isopropylbenzamide] | 27 µL/min/mg |  | 100 nM | 121 nM |  |  |  | 
16 | CC(C)c1ccncc1-c1cc(F)ccc1-n1cc(C(=O)C2CCN(C(=O)[C@H]3N[C@@H]4CC[C@H]3C4)CC2)c2ccncc21 [Example 41, (1-((1R,3S,4S)-2-Azabicyclo[2.2.1]heptane-3-carbonyl)piperidin-4-yl)(1-(4-fluoro-2-(4-isopropylpyridin-3-yl)phenyl)-1H-pyrrolo[2,3-c]pyridin-3-yl)methanone] | 180 µL/min/mg | > 40000 nM |  | 42 nM |  |  |  | 
17 | CCN(C(=O)c1cc(F)ccc1-n1c(C)c(C(=O)[C@@H]2CCN(C(=O)[C@@H]3CC[C@H](C)N3)[C@@H](C)C2)c2ccncc21)C(C)C (stereo in doubt) [Example 63, N-Ethyl-5-fluoro-N-isopropyl-2-(2-methyl-3-((2S,4RS)-2-methyl-1-((2S,5S)-5-methylpyrrolidine-2-carbonyl)piperidine-4-carbonyl)-1H-pyrrolo[2,3-c]pyridine-1-yl)benzamide] | 63 µL/min/mg | > 40000 nM |  | 47 nM |  |  |  | 
18 | CCN(C(=O)c1cc(F)ccc1-n1c(C)c(C(=O)C2CCN(C(=O)[C@H]3NC[C@@H]4C[C@@H]43)CC2)c2ccncc21)C(C)C (single isomer, unassigned) [Example 48-1] |  | > 40000 nM |  |  |  |  | 69 µL/min/mg | 1250 nM
19 | Cc1c(C(=O)C2CCN(C(=O)[C@H]3NC[C@@H]4C[C@@H]43)CC2)c2ccncc2n1-c1ccc(F)cc1C(=O)N(CC(F)(F)F)C(C)C (single isomer, unassigned) [Example 51-1] | 54 µL/min/mg | > 40000 nM |  |  |  |  |  | 1610 nM
20 | Cc1c(C(=O)C2CCN(C(=O)[C@@H]3CCC(C)(C)N3)CC2)c2ccncc2n1-c1ccc(F)cc1C(=O)N(C(C)C)C(C)C (single isomer, unassigned) [Example 56-1] | 133 µL/min/mg | > 40000 nM |  |  |  |  |  | 1930 nM
